The record followed here is ChEMBL document CHEMBL2057087, “Design, synthesis and vasodilative activity of tanshinone IIA derivatives” (2012).

The test system of the first assay is Aorta. Kind of assay: Vasodilatory activity in Wistar rat thoracic aorta rings assessed as inhibition of norepinephrine hydrochloride-induced contraction. Format: functional, tissue-based.
As to `Cc1coc2c1C(=O)C(=O)c1c-2ccc2c1C(OC(=O)c1ccccc1F)CCC2(C)C` (stereo not given), the inhibition result was “Dose-dependent effect”.

For `COc1cccc(CC(=O)OC2CCC(C)(C)c3ccc4c(c32)C(=O)C(=O)c2c(C)coc2-4)c1` (stereo not given), the inhibition result is “Dose-dependent effect”.

In the case of `COc1ccc(C(=O)OC2CCC(C)(C)c3ccc4c(c32)C(=O)C(=O)c2c(C)coc2-4)cc1` (stereo not given), the inhibition entry was “Dose-dependent effect”.

As for `Cc1coc2c1C(=O)C(=O)c1c-2ccc2c1C(OC(=O)c1ccccc1O)CCC2(C)C` (stereo not given), the inhibition entry was “Dose-dependent effect”.

In another assay the test system is Aorta. Kind of assay: Vasodilatory activity in Wistar rat thoracic aorta rings assessed as inhibition of norepinephrine hydrochloride-induced contraction at 1 X 10 '-4 M. Format: functional.
For the compound `Cc1coc2c1C(=O)C(=O)c1c-2ccc2c1C(OC(=O)c1ccc(F)cc1)CCC2(C)C` (stereo not given), the inhibition at 100 µM is -3.3%.

For the compound `Cc1coc2c1C(=O)C(=O)c1c-2ccc2c1C(OC(=O)Cc1cccc(O)c1)CCC2(C)C` (stereo not given), the inhibition at 100 µM was -4.92%.

Consider `Cc1coc2c1C(=O)C(=O)c1c-2ccc2c1C(OC(=O)Cc1ccccc1F)CCC2(C)C` (stereo not given), for which the inhibition at 100 µM turned out to be 1.92%.

Take `Cc1coc2c1C(=O)C(=O)c1c-2ccc2c1C(OC(=O)Cc1ccccc1)CCC2(C)C` (stereo not given): the inhibition at 100 µM was -17.8%.

In the case of `Cc1coc2c1C(=O)C(=O)c1c-2ccc2c1C(OC(=O)c1ccccc1F)CCC2(C)C` (stereo not given), the inhibition at 100 µM is 21.8%.

Consider `Cc1coc2c1C(=O)C(=O)c1c-2ccc2c1C(OC(=O)Cc1ccc(F)cc1)CCC2(C)C` (stereo not given), for which the inhibition at 100 µM is -13.3%.

On to `Cc1coc2c1C(=O)C(=O)c1c-2ccc2c1C(OC(=O)Cc1cccc(F)c1)CCC2(C)C` (stereo not given), for which the inhibition at 100 µM is -2.78%.

As for `Cc1coc2c1C(=O)C(=O)c1c-2ccc2c1C(OC(=O)c1cccc(F)c1)CCC2(C)C` (stereo not given), the inhibition at 100 µM was -3.59%.

Take `COc1ccccc1C(=O)OC1CCC(C)(C)c2ccc3c(c21)C(=O)C(=O)c1c(C)coc1-3` (stereo not given): the inhibition at 100 µM turned out to be 7.58%.

`COc1cccc(CC(=O)OC2CCC(C)(C)c3ccc4c(c32)C(=O)C(=O)c2c(C)coc2-4)c1` (stereo not given): the inhibition at 100 µM worked out at 29.4%.

As for `COc1ccc(CC(=O)OC2CCC(C)(C)c3ccc4c(c32)C(=O)C(=O)c2c(C)coc2-4)cc1` (stereo not given), the inhibition at 100 µM was found to be 20.2%.

For `Cc1coc2c1C(=O)C(=O)c1c-2ccc2c1C(OC(=O)c1ccccc1)CCC2(C)C` (stereo not given), the inhibition at 100 µM was -9.41%.

For `Cc1coc2c1C(=O)C(=O)c1c-2ccc2c1C(OC(=O)c1cccc(O)c1)CCC2(C)C` (stereo not given), the inhibition at 100 µM amounted to 19.1%.

`Cc1coc2c1C(=O)C(=O)c1c-2ccc2c1CCCC2(C)C` [TANSHINONE IIA]: the inhibition at 100 µM came to 1.86%.

As for `COc1cccc(C(=O)OC2CCC(C)(C)c3ccc4c(c32)C(=O)C(=O)c2c(C)coc2-4)c1` (stereo not given), the inhibition at 100 µM is -0.25%.

With `Cc1coc2c1C(=O)C(=O)c1c-2ccc2c1C(OC(=O)Cc1ccc(O)cc1)CCC2(C)C` (stereo not given), the inhibition at 100 µM was -1.67%.

In the case of `Cc1coc2c1C(=O)C(=O)c1c-2ccc2c1C(OC(=O)c1ccc(O)cc1)CCC2(C)C` (stereo not given), the inhibition at 100 µM was 9.39%.

On to `COc1ccccc1CC(=O)OC1CCC(C)(C)c2ccc3c(c21)C(=O)C(=O)c1c(C)coc1-3` (stereo not given), for which the inhibition at 100 µM is 12.8%.

`Cc1coc2c1C(=O)C(=O)c1c-2ccc2c1C(OC(=O)Cc1ccccc1O)CCC2(C)C` (stereo not given): the inhibition at 100 µM is -0.37%.

In the case of `COc1ccc(C(=O)OC2CCC(C)(C)c3ccc4c(c32)C(=O)C(=O)c2c(C)coc2-4)cc1` (stereo not given), the inhibition at 100 µM is 23.5%.

Turning to `Cc1coc2c1C(=O)C(=O)c1c-2ccc2c1C(OC(=O)c1ccccc1O)CCC2(C)C` (stereo not given), the inhibition at 100 µM came out at 22.4%.
